In brackets after ≈: the same amount, converted by molar mass.
Tested on: KB
Assay: Cytotoxicity against human KB cells
Type: functional

Structure (SMILES)	EC50 (Homo sapiens, KB, read-out: ED50 (the source's name)) [µg/mL]	ED50 [×10⁻⁵ ug/ml]
CC(=O)O[C@@]12CO[C@@H]1C[C@H](O)[C@@]1(C)C(=O)C(=O)C3=C(C)[C@@H](OC(=O)[C@H](O)[C@@H](NC(=O)c4ccccc4)c4ccccc4)C[C@@](O)([C@@H](OC(=O)c4ccccc4)[C@H]21)C3(C)C	0.02 (≈ 0.0247 µM)	
CC(=O)O[C@H]1C(=O)[C@@]2(C)[C@H]([C@H](OC(=O)c3ccccc3)[C@]3(O)C[C@H](OC(=O)[C@H](O)[C@@H](NC(=O)c4ccccc4)c4ccccc4)C(C)=C1C3(C)C)[C@]1(OC(C)=O)CO[C@@H]1C[C@@H]2O [PACLITAXEL]		1
CC(=O)O[C@H]1C(=O)[C@]2(C)[C@H](O)C[C@H]3OC[C@@]3(OC(C)=O)[C@H]2[C@H](OC(=O)c2ccccc2)[C@]2(O)C[C@H](OC(=O)[C@H](O)[C@@H](NC(=O)c3ccccc3)c3ccccc3)C(C)=C1C2(C)C		3

— ChEMBL document CHEMBL1149015, “New taxanes from Taxus brevifolia, 2” (1986)
